Data published in ChEMBL document CHEMBL6121021, “Design and Synthesis of Topoisomerases-Histone Deacetylase Dual Targeted Quinoline-Bridged Hydroxamates as Anticancer Agents” (J Med Chem, 2025).
Active and inactive are the calls of the source. The rule behind the calls is not given here.

Tests used:
Histone deacetylase 1 = Histone deacetylase 1 (Homo sapiens, UniProt Q13547); assay: Inhibition of HDAC1 extracted from human A549 nucleus incubated for 1 hr by fluorometric assay; type: cell-free
[1] = molecular target: T1, Protein deacetylase HDAC6 (Homo sapiens, UniProt Q9UBN7); assay: Inhibition of HDAC6 (unknown origin) using acetylated-peptide substrate by fluorometric assay
T1 sequence (Q9UBN7 whole entry): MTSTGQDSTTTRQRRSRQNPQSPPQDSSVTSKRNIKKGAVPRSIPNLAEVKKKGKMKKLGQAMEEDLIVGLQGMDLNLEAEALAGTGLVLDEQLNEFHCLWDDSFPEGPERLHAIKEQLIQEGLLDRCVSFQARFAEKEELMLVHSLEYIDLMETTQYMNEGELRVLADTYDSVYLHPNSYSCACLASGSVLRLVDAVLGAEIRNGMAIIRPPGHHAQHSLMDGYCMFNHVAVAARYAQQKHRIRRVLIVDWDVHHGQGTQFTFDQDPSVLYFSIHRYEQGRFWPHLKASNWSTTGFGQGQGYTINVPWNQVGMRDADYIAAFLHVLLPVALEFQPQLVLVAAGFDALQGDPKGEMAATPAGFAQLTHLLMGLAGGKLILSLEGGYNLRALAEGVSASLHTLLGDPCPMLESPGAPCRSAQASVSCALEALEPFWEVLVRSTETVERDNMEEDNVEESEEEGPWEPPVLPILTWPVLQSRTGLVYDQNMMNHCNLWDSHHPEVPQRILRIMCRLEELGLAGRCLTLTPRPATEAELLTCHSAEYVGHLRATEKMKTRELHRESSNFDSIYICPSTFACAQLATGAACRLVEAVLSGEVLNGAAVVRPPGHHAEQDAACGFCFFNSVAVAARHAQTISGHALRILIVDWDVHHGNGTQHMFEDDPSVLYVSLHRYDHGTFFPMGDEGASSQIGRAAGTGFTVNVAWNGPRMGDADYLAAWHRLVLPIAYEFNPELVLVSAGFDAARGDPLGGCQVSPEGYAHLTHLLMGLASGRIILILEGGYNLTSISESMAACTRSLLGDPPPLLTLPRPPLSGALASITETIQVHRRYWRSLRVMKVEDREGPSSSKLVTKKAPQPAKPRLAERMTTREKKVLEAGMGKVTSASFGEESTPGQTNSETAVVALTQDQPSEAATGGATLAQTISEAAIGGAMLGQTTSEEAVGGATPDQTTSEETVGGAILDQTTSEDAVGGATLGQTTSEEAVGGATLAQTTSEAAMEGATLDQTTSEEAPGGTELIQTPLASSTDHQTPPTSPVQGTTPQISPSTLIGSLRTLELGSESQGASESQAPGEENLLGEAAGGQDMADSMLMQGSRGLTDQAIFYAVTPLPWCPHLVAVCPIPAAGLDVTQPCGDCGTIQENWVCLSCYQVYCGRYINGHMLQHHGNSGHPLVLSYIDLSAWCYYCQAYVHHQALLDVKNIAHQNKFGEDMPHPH

Histone deacetylase 5 = Histone deacetylase 5 (Homo sapiens, UniProt Q9UQL6); assay: Inhibition of His-tagged recombinant human HDAC5 catalytic domain by fluorogenic assay
HEK293 = assay: Antiproliferative activity against HEK293 cells at 10 uM incubated for 48 hrs by MTT assay; type: toxicity, cell-based; conditions: human, hek293, 48 h
H9c2 = assay: Antiproliferative activity against rat H9c2 cells at 10 uM by JC-1 staining based analysis; type: toxicity, cell-based; conditions: h9c2, 10 µM
A549 [2] = assay: Induction of cell cycle arrest in human A549 cells assessed as accumulation at G2/M phase at 500 nM by PI staining based flow cytometry; type: functional
A549 [3] = assay: Induction of mitophagy in human A549 cells at 500 nM by MitoTracker Green dye based analysis; type: functional, cell-based
MDA-MB-231 [4] = assay: Anti-cancer activity against human MDA-MB-231 cells assessed as decrease in PCNA level incubated for 48 hrs by immunoblot analysis; type: functional, cell-based; conditions: dose 1-10 µM
MDA-MB-231 [5] = assay: Anti-cancer activity against human MDA-MB-231 cells assessed as decrease in CDK-4 level at 1 to 10 uM incubated for 48 hrs by immunoblot analysis; type: functional, cell-based; conditions: dose 1-10 µM
MDA-MB-231 [6] = assay: Anti-cancer activity against human MDA-MB-231 cells assessed as decrease in p53 level at 1 to 3 uM incubated for 48 hrs by immunoblot analysis; type: functional, cell-based; conditions: dose 1-3 µM
MDA-MB-231 [7] = assay: Anti-cancer activity against human MDA-MB-231 cells assessed as decrease in p21 level at 1 to 10 uM incubated for 48 hrs by immunoblot analysis; type: functional, cell-based; conditions: dose 1-10 µM
[8] = Metabolic stability in mouse hepatocytes assessed as half life at 2 uM measured upto 120 min by LC-MS/MS analysis; type: ADME, cell-based, Hepatocyte
[9] = Metabolic stability in human hepatocytes assessed as half life at 2 uM measured upto 120 min by LC-MS/MS analysis; type: ADME, cell-based, Hepatocyte
[10] = Metabolic stability in mouse hepatocytes assessed as hepatic clearance at 2 uM measured upto 120 min by LC-MS/MS analysis; type: ADME, cell-based, Hepatocyte
[11] = Metabolic stability in human hepatocytes assessed as hepatic clearance at 2 uM measured upto 120 min by LC-MS/MS analysis; type: ADME, cell-based, Hepatocyte
Cytochrome P450 1A2 = Cytochrome P450 1A2 (Homo sapiens, UniProt P05177); assay: Inhibition of CYP1A2 in human liver microsomes preincubated for 10 mins followed by NADPH addition measured after 5 mins by LC-MS/MS analysis; type: ADME, Microsome
[12] = Drug metabolism in human hepatocytes assessed as oxidative deamination M1 metabolite formation at 10 uM by LC-MS/MS analysis; type: ADME, cell-based, Hepatocyte
[13] = Drug metabolism in human hepatocytes assessed as demethylation M6 metabolite formation at 10 uM by LC-MS/MS analysis; type: ADME, cell-based, Hepatocyte
[14] = Drug metabolism in human hepatocytes assessed as glucuronide conjugated M8 metabolite formation at 10 uM by LC-MS/MS analysis; type: ADME, cell-based, Hepatocyte
[15] = Drug metabolism in human hepatocytes assessed as formation of O-demethylated M6 metabolite conjugated with sulphate at 10 uM by LC-MS/MS analysis; type: ADME, cell-based, Hepatocyte
A549 [16] = assay: Antitumor activity against human A549 cells xenografted in athymic nude Crl:NU-Foxn1nu mouse assessed as decrease in tumor size at 15 to 30 mg/kg, po administered twice a week for 1 month; type: functional, organism-based; conditions: dose 15-30 mg/kg, time 1.0 months
A549 [17] = assay: In vivo inhibition of epithelial-mesenchymal transition in human A549 cells xenografted in athymic nude Crl:NU-Foxn1nu mouse assessed as decrease in Twist mRNA level at 30 mg/kg, po administered twice a week for 1 month by qPCR analysis; type: functional, organism-based; conditions: time 1.0 months
A549 [18] = assay: cells; conditions: Homo sapiens, A549, 48 h
A549 [19] = assay: Induction of cell cycle arrest in human A549 cells assessed as accumulation at G1 phase by PI staining based flow cytometry; type: functional
MDA-MB-231 [20] = assay: Anti-cancer activity against human MDA-MB-231 cells assessed as decrease in p53 level at 1 to 5 uM incubated for 48 hrs by immunoblot analysis; type: functional, cell-based; conditions: dose 1-5 µM
MDA-MB-231 [21] = assay: Anti-cancer activity against human MDA-MB-231 cells assessed as decrease in p21 level at higher concentration incubated for 48 hrs by immunoblot analysis; type: functional, cell-based

Sequence of Histone deacetylase 1 (Q13547 whole entry): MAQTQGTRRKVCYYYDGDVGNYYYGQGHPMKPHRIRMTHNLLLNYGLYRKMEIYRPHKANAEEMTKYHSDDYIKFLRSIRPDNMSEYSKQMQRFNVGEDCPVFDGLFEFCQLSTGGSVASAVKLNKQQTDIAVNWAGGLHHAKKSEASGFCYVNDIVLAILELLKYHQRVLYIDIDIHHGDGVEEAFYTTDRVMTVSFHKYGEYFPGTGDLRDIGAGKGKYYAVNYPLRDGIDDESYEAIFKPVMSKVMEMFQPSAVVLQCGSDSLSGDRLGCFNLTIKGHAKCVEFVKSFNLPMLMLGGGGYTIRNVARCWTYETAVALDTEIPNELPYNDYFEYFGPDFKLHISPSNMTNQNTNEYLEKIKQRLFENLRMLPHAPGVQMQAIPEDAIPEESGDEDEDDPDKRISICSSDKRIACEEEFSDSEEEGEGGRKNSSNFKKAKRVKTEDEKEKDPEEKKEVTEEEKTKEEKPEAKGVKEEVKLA
Sequence of Cytochrome P450 1A2 (P05177 whole entry): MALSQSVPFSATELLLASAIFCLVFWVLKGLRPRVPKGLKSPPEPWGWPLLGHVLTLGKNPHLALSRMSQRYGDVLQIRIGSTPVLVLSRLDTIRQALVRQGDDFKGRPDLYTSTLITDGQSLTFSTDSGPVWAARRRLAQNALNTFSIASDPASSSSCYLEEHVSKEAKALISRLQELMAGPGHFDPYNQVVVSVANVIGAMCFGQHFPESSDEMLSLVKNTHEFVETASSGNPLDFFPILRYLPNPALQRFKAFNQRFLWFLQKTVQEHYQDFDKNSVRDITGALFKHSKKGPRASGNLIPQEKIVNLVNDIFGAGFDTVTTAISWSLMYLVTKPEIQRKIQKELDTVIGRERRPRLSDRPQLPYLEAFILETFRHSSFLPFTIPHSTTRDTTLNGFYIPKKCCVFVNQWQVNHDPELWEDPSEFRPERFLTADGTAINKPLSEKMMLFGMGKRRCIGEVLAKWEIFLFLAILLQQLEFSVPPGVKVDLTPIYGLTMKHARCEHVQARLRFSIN
Sequence of Histone deacetylase 5 (Q9UQL6 whole entry, the tested form may be a part): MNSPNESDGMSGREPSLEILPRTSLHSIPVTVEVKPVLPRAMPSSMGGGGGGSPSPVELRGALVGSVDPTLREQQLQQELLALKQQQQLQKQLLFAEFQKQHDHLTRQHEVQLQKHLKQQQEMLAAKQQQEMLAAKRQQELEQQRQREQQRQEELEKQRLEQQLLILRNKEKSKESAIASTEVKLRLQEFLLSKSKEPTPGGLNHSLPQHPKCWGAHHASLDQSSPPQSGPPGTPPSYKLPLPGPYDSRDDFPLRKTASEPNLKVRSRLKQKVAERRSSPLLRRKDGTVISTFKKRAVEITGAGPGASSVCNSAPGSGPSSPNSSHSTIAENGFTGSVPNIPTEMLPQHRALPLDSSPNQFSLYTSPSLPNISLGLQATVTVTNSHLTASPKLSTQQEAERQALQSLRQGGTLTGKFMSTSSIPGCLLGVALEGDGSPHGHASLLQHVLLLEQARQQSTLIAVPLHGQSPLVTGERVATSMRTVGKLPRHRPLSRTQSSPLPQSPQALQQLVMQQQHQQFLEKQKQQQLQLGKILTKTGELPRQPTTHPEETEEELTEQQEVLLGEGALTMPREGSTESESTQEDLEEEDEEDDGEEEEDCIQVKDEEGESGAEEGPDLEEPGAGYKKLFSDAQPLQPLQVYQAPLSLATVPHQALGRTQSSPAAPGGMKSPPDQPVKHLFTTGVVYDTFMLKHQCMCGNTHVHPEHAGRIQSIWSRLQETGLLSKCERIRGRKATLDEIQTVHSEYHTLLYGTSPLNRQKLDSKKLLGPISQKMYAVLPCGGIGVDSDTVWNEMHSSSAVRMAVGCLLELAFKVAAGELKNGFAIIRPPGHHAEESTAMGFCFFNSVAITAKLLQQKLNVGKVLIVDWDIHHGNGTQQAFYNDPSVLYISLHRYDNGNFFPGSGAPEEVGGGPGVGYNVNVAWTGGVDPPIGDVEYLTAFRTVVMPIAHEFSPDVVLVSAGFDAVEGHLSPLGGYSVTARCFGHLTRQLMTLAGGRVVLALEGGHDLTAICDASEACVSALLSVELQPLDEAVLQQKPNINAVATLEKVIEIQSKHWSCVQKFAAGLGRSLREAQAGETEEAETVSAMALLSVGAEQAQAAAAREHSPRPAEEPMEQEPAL

COc1ccc(-c2ccc3cc(OCCCCCC(=O)NO)ccc3n2)cc1 showed an IC50 (Histone deacetylase 1) of 11.9 nM, an IC50 [1] of 22.9 nM and an IC50 (Histone deacetylase 5) of 88.2 nM. The Activity (HEK293) was “Non-toxic”, the Activity (H9c2) was “Non-toxic” and the Activity (A549 [2]) was “Active”. For the same molecule, the Activity (A549 [3]) was “Active”, the Activity (MDA-MB-231 [4]) was “Dose-dependent-effect” and the Activity (MDA-MB-231 [5]) was “Active”. The Activity (MDA-MB-231 [6]) was “Active”, the Activity (MDA-MB-231 [7]) was “Active” and the half-life at 2 µM [8] was 74.3 min. It also gave a half-life at 2 µM [9] of 45.7 min, a CLhep predicted at 2 µM [10] of 65.9 mL/min/kg and a CLhep predicted at 2 µM [11] of 14 mL/min/kg. The IC50 (Cytochrome P450 1A2) was 4420 nM, the Drug metabolism [12] was “metabolite_detected” and the Drug metabolism [13] was “metabolite_detected”. For the same molecule, the Drug metabolism [14] was “metabolite_detected”, the Drug metabolism [15] was “metabolite_detected” and the Activity (A549 [16]) was “Active”. For the same molecule, the inhibition (A549 [17]) was “Active” and the IC50 (A549 [18]) was 702 nM.

For COc1ccc(-c2ccc3ccc(OCCCCCCC(=O)NO)cc3n2)cc1I, the IC50 (Histone deacetylase 1) was 36.2 nM, the IC50 [1] was 137 nM and the Activity (A549 [19]) was “Active”. The Activity (MDA-MB-231 [20]) was “Active”, the Activity (MDA-MB-231 [21]) was “Active” and the IC50 (A549 [18]) was 1970 nM.
